Assay results as given in PubChem BioAssay AID248 (DTP/NCI, 2004).
Values joined by “and” are separate entries in the source; they are usually repeats but may differ in a detail not shown here. Equal entries are not always repeated. Toxic doses and inconclusive results are not listed. No stated cut-off is given here; in the data, active means T/C of 150% or more; inactive means T/C below 125%.

System: L1210 leukemia ip in BDF1 mice, survival T/C
Assay: NCI In Vivo Anticancer Drug Screen. Data for tumor model L1210 Leukemia (intraperitoneal) in B6D2F1 (BDF1) mice
Settings: endpoint: mean survival time, higher = longer survival
How it was run: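 Mice bearing the transplanted tumor received compound or vehicle. Survival of the treated group was divided by that of the vehicle-treated control group to give the ratio.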

[1] = dose: 100.0 mg/kg/injection, schedule: Q01DX001 (ip), vehicle: carboxymethylcellulose (CMC)
[2] = dose: 200.0 mg/kg/injection, schedule: Q01DX001 (ip), vehicle: carboxymethylcellulose (CMC)
[3] = dose: 400.0 mg/kg/injection, schedule: Q01DX001 (ip), vehicle: carboxymethylcellulose (CMC)
[4] = dose: 100.0 mg/kg/injection, schedule: Q01DX001 (ip), vehicle: saline
[5] = dose: 200.0 mg/kg/injection, schedule: Q01DX001 (ip), vehicle: saline
[6] = dose: 100.0 mg/kg/injection, schedule: Q01DX009 (ip), vehicle: saline with Tween-80
[7] = dose: 200.0 mg/kg/injection, schedule: Q01DX009 (ip), vehicle: saline with Tween-80
[8] = dose: 400.0 mg/kg/injection, schedule: Q01DX009 (ip), vehicle: saline with Tween-80
[9] = dose: 100.0 mg/kg/injection, schedule: Q01DX009 (ip), vehicle: Klucel (hydroxypropylcellulose) (HPC)
[10] = dose: 100.0 mg/kg/injection, schedule: Q04DX002 (ip), vehicle: Klucel (hydroxypropylcellulose) (HPC)
[11] = dose: 200.0 mg/kg/injection, schedule: Q01DX009 (ip), vehicle: Klucel (hydroxypropylcellulose) (HPC)
[12] = dose: 200.0 mg/kg/injection, schedule: Q04DX002 (ip), vehicle: Klucel (hydroxypropylcellulose) (HPC)
[13] = dose: 400.0 mg/kg/injection, schedule: Q01DX009 (ip), vehicle: Klucel (hydroxypropylcellulose) (HPC)
[14] = dose: 400.0 mg/kg/injection, schedule: Q04DX002 (ip), vehicle: Klucel (hydroxypropylcellulose) (HPC)
[15] = dose: 100.0 mg/kg/injection, schedule: Q04DX002 (ip), vehicle: saline with Tween-80
[16] = dose: 200.0 mg/kg/injection, schedule: Q04DX002 (ip), vehicle: saline with Tween-80
[17] = dose: 400.0 mg/kg/injection, schedule: Q04DX002 (ip), vehicle: saline with Tween-80
[18] = dose: 100.0 mg/kg/injection, schedule: Q01DX009 (ip), vehicle: saline
[19] = dose: 200.0 mg/kg/injection, schedule: Q01DX009 (ip), vehicle: saline
[20] = dose: 100.0 mg/kg/injection, schedule: Q04DX003 (ip), vehicle: Klucel (hydroxypropylcellulose) (HPC)
[21] = dose: 200.0 mg/kg/injection, schedule: Q04DX003 (ip), vehicle: Klucel (hydroxypropylcellulose) (HPC)
[22] = dose: 400.0 mg/kg/injection, schedule: Q04DX003 (ip), vehicle: Klucel (hydroxypropylcellulose) (HPC)
[23] = dose: 50.0 mg/kg/injection, schedule: Q01DX009 (ip), vehicle: saline with Tween-80
[24] = dose: 100.0 mg/kg/injection, schedule: Q04DX003 (ip), vehicle: saline with Tween-80
[25] = dose: 200.0 mg/kg/injection, schedule: Q04DX003 (ip), vehicle: saline with Tween-80
[26] = dose: 400.0 mg/kg/injection, schedule: Q04DX003 (ip), vehicle: saline with Tween-80

Measured: T/C

O=C(O)Cc1ccc(NC(=O)NCCCl)cc1
inactive: [1] 87 % of control | [2] 98 % of control | [3] 93 % of control

Clc1ccc(C2ON2C2CCCCC2)cc1 (stereo not given)
inactive: [1] 95 % of control | [2] 101 % of control | [3] 101 % of control

Cc1ccccc1NC(=O)N(O)C1(C#N)CCCCC1
inactive: [4] 91 % of control | [5] 93 % of control | dose: 400.0 mg/kg/injection, schedule: Q01DX001 (ip), vehicle: saline 93 % of control

COc1ccc(OC)c(NC(=O)NNC(=O)CNC(=O)Nc2cccc([N+](=O)[O-])c2)c1
inactive: [6] 89 % of control | [7] 91 % of control | [8] 91 % of control

O=C(c1ccccc1)C(Nc1nc2nc(-c3ccccc3)c(-c3ccccc3)n2[nH]1)c1ccccc1 (stereo not given)
inactive: dose: 100.0 mg/kg/injection, schedule: Q01DX005 (ip), vehicle: Klucel (hydroxypropylcellulose) (HPC) 98 % of control | [9] 93 % of control | [10] 101 % of control | dose: 200.0 mg/kg/injection, schedule: Q01DX005 (ip), vehicle: Klucel (hydroxypropylcellulose) (HPC) 98 % of control | [11] 93 % of control | [12] 93 % of control | dose: 400.0 mg/kg/injection, schedule: Q01DX005 (ip), vehicle: Klucel (hydroxypropylcellulose) (HPC) 98 % of control | [13] 93 % of control | [14] 96 % of control

C1CCC(C2CCCC2)C1
inactive: [15] 100 % of control | [16] 89 % of control | [17] 110 % of control

CC(=O)Nc1ccc(N(CCO)CCO)cc1
inactive: dose: 25.6 mg/kg/injection, schedule: Q04DX002 (ip), vehicle: saline with Tween-80 88 % of control | dose: 64.0 mg/kg/injection, schedule: Q04DX002 (ip), vehicle: saline with Tween-80 88 % of control | dose: 160.0 mg/kg/injection, schedule: Q04DX002 (ip), vehicle: saline with Tween-80 88 % of control | [17] 92 % of control

CS(=O)(=O)OC[C@H](OS(=O)(=O)O)[C@H](COS(C)(=O)=O)OS(=O)(=O)O
inactive: dose: 50.0 mg/kg/injection, schedule: Q01DX009 (ip), vehicle: saline 106 % of control | dose: 50.0 mg/kg/injection, schedule: Q04DX003 (ip), vehicle: saline 89 % of control | [4] 89 % of control | [18] 95 % of control | dose: 100.0 mg/kg/injection, schedule: Q04DX003 (ip), vehicle: saline 96 % of control | [5] 95 % of control | [19] 98 % of control | dose: 200.0 mg/kg/injection, schedule: Q04DX003 (ip), vehicle: saline 91 % of control

COC(=O)Cc1cn[nH]c1C(=O)OC
inactive: [18] 97 % of control | [20] 93 % of control | [19] 94 % of control | [21] 97 % of control | dose: 400.0 mg/kg/injection, schedule: Q01DX009 (ip), vehicle: saline 95 % of control | [22] 97 % of control

CC1=NN(c2ccccc2)C(=O)C1C(=O)c1ccccc1 (stereo not given)
inactive: dose: 25.0 mg/kg/injection, schedule: Q01DX009 (ip), vehicle: saline with Tween-80 92 % of control | [23] 95 % of control | [24] 94 % of control

COC(=O)CNC(=O)CCNC(=O)OCc1ccccc1
inactive: [24] 98 % of control | [25] 97 % of control | [26] 98 % of control

BrC1(Br)C2CC/C=C\CCC21 (stereo not given)
inactive: [23] 102 % of control | [6] 94 % of control

CCOC(=O)c1ccc(NC(=O)N2CCCCC2C)cc1 (stereo not given)
inactive: dose: 100.0 mg/kg/injection, schedule: Q01DX001 (ip), vehicle: saline with Tween-80 93 % of control | [6] 104 % of control | [15] 97 % of control and 99 % of control | [24] 88 % of control | dose: 200.0 mg/kg/injection, schedule: Q01DX001 (ip), vehicle: saline with Tween-80 89 % of control | [7] 104 % of control | [16] 92 % of control and 100 % of control | [25] 96 % of control | dose: 400.0 mg/kg/injection, schedule: Q01DX001 (ip), vehicle: saline with Tween-80 91 % of control | [8] 97 % of control | [17] 94 % of control and 99 % of control | [26] 96 % of control

C/C=C/C1OCC(CC)([N+](=O)[O-])CO1 (stereo not given)
inactive: [24] 101 % of control | [25] 96 % of control | [26] 98 % of control

CCCCCCCCCC[As]1c2ccccc2Nc2ccccc21
inactive: dose: 50.0 mg/kg/injection, schedule: Q04DX002 (ip), vehicle: saline with Tween-80 92 % of control | [15] 89 % of control | [16] 96 % of control

CCN(CC)CC
inactive: [10] 98 % of control | [12] 109 % of control | [14] 103 % of control

O=C1CCC(=O)N1c1ccc(I)cc1
inactive: dose: 50.0 mg/kg/injection, schedule: Q01DX001 (ip), vehicle: carboxymethylcellulose (CMC) 96 % of control | [1] 98 % of control | [2] 93 % of control | [3] 107 % of control

CCCCCCCCCCCCCC1=NCCN1CCO
inactive: dose: 5.0 mg/kg/injection, schedule: Q01DX009 (ip), vehicle: saline 94 % of control | dose: 10.0 mg/kg/injection, schedule: Q01DX009 (ip), vehicle: saline 96 % of control | dose: 20.0 mg/kg/injection, schedule: Q01DX009 (ip), vehicle: saline 86 % of control

Oc1ccc2ccccc2c1C(c1ccccc1)N1CCCCC1 (stereo not given)
inactive: dose: 100.0 mg/kg/injection, schedule: Q01DX001 (ip), vehicle: Klucel (hydroxypropylcellulose) (HPC) 94 % of control | dose: 200.0 mg/kg/injection, schedule: Q01DX001 (ip), vehicle: Klucel (hydroxypropylcellulose) (HPC) 97 % of control | dose: 400.0 mg/kg/injection, schedule: Q01DX001 (ip), vehicle: Klucel (hydroxypropylcellulose) (HPC) 103 % of control

Cc1ccnc(SCC(=O)O)n1
inactive: [9] 108 % of control | [20] 96 % of control | [11] 95 % of control | [21] 96 % of control | [13] 90 % of control | [22] 95 % of control

CCCOC(=O)CSC#N
inactive: dose: 5.0 mg/kg/injection, schedule: Q01DX001 (ip), vehicle: saline 106 % of control | dose: 10.0 mg/kg/injection, schedule: Q01DX001 (ip), vehicle: saline 100 % of control

Cc1cccc(NC(=O)Nc2ccccc2Cl)c1C
inactive: [9] 94 % of control | [20] 95 % of control | [11] 92 % of control | [21] 110 % of control | [13] 96 % of control | [22] 96 % of control
